For one assay, the system named is NIH3T3 fibroblasts. The assay can be described thus: Inhibition test of compounds on NIH3T3 fibroblasts (MTT method). The class given is cell-based. The settings on record: for IC50: MTT, relative to fluorofenidone on a certain plate; for Multiple: multiple of activity versus fluorofenidone from IC50 values. The method, then: Inhibition Test of Compounds on NIH3T3 Fibroblasts
An MTT method is used and comprises steps of: culturing cells in DMEM culture medium including 5% calf serum and preparing the cells into cell suspension of 3×10^4/ml; inoculating in 96-well plate according to 100 μl/well; transferring new culture medium including compounds with different concentration, fluorofenidone and 1% calf serum after cells are adhered, wherein three repeated wells are provided for each concentration; respectively adding 100 μl of MTT solution in each well after 48 hours and 72 hours of administrating (the culture medium is prepared into 5 mg/ml and kept in dark after filtering), sucking out MTT after 4 hours; adding 150 μl of DMSO which is the dissolving liquid of MTT; after 10 min and MTT is completely dissolved, measuring OD value by ELISA reader; calculating IC50 values of fluorofenidone and measured compounds according to inhibition ratio; calculating multiple of activities of measured compounds and fluorofenidone according to IC50 values of fluorofenidone and measured compounds; and obtaining relative IC50 value of measured compounds according to multiple and IC50 value of fluorofenidone on a certain plate.
For orientation: Formazan colour is commonly taken as a measure of viable cells.

Assay [1] relates to rat unilateral ureteral obstruction renal fibrosis model. The experiment in a line: Rat unilateral ureteral obstruction renal fibrosis model. The class given is in vivo. On the procedure: Observation of Treatment Effect of Compound 13 in a Rat Unilateral Ureteral Obstruction Renal Fibrosis Model
(1) Randomization: nine rats are divided into three groups at random, namely a normal group (n=3); a model group (n=3) and a treatment group (n=3) treated by compound 13 of 15 mg/kg; three rats are in a hutch; and the experimental animals are adaptively fed for two days. […]
HE stained slices of renal tissues are successively observed in fives fields of view of renal tubulointerstitium on upper left side, upper right side, lower left side, lower right side and middle portion by a low power lens and are evaluated according to eight indexes of renal interstitium lesion: renal tubular epithelial cell vacuolar degeneration, renal tubular ectasia, renal tubular atrophy, red cell cast, protein cast, interstitial edema, interstitial fibrosis and interstitial inflammatory cell infiltration; an average value is calculated as the index of renal tubulointerstitial lesion of the sample; and the evaluation standard is based on the reference of Radford M G Jr, Donadio J V Jr, Bergstralh E J, et al. Predicting renal outcome in IgA nephropathy. […]
Masson staining slices of renal tissues are observed in 20 fields of vision for each sample at random under 400X light microscope; percent of blue-stain collagens in the fields of vision is calculated; an average value is determined after semi-quantitative evaluation: no positive staining, 0; <25%, 1; 25-50%, 2; 50-75%, 3; >75%, 4; and the evaluation standard is based on references. […]

The mark [2] stands for this setting: Mus musculus, NIH3T3, 48 h, 48 hours after administration.
Where [3] appears, read: Mus musculus, NIH3T3, 72 h, 72 hours after administration.

For `O=c1ccc(C(F)(F)F)cn1-c1ccc(NCCCN2CCCCC2)cc1Cl` [Compound 3, 1-(2-chloro-4-((3-piperidin-1-yl)propylamino)phenyl)-5-(trifluoromethyl)pyridin-2(1H)-one], the IC50 is 238 µM in the assay with NIH3T3 fibroblasts (48 hours after administration) and 65 µM with NIH3T3 fibroblasts (72 hours after administration). Also, the Multiple in the assay with NIH3T3 fibroblasts (48 hours) is 18.60; in the assay on NIH3T3 fibroblasts (72 hours), 54.0.

Consider `CN1CCN(CCCNc2ccc(-n3cc(C(F)(F)F)ccc3=O)c(Cl)c2)CC1` [Compound 1, 1-(2-chloro-4-((3-(4-methylpiperazin-1-yl)propyl)amino)phenyl)-5-(trifluoromethyl)pyridin-2(1H)-one], for which the figures for the Multiple in the assay with NIH3T3 fibroblasts (48 hours) and with NIH3T3 fibroblasts (72 hours) were 15.50 and 21.60, respectively. The IC50 stood at 286 µM in the assay on NIH3T3 fibroblasts (setting [2]) and 163 µM with NIH3T3 fibroblasts (setting [3]).

Take `O=c1ccc(C(F)(F)F)cn1-c1ccc(NCCCN2CCOCC2)cc1Cl` [Compound 2, 1-(2-chloro-4-((3-morpholinylpropyl)amino)phenyl)-5-(trifluoromethyl)pyridin-2(1H)-one]: the Multiple is 18.36 with NIH3T3 fibroblasts (48 hours) and 21.87 in the assay on NIH3T3 fibroblasts (72 hours). In addition, the IC50 amounted to 241 µM in the assay on NIH3T3 fibroblasts (setting [2]) and 161 µM with NIH3T3 fibroblasts (setting [3]).

For the compound `CCCCOCCCNc1ccc(-n2cc(C(F)(F)F)ccc2=O)c(Cl)c1` [Compound 4, 1-(4-((3-butoxypropyl)amino)-2-chlorophenyl)-5-(trifluoromethyl) pyridin-2(1H)-one], the Multiple in the assay on NIH3T3 fibroblasts (48 hours) came out at 6.31; in the assay with NIH3T3 fibroblasts (72 hours), 11.31. Moreover, the IC50 with NIH3T3 fibroblasts (setting [2]) was 702 µM; with NIH3T3 fibroblasts (setting [3]) it was 311 µM.

On to `O=c1ccc(C(F)(F)F)cn1-c1ccc(N(CCO)CCO)cc1Cl` [Compound 6, 1-(4-(N,N-(2-hydroxyethyl)amino)-2-chlorophenyl)-5-(trifluoromethyl)pyridin-2(1H)-one], for which the Multiple with NIH3T3 fibroblasts (48 hours) is given as 6.91; in the assay with NIH3T3 fibroblasts (72 hours), 6.00. For the same compound, the IC50 in the assay with NIH3T3 fibroblasts (setting [2]) turned out to be 641 µM; in the assay on NIH3T3 fibroblasts (setting [3]) it was 587 µM.

Consider `O=c1ccc(C(F)(F)F)cn1-c1ccc(NCCO)cc1Cl` [Compound 5, 1-(2-chloro-4-((2-hydroxyethyl)amino)phenyl)-5-(trifluoromethyl)pyridin-2(1H)-one], for which the values for the Multiple in the assay with NIH3T3 fibroblasts (48 hours) and in the assay on NIH3T3 fibroblasts (72 hours) were 3.21 and 5.57, respectively. In addition, the IC50 with NIH3T3 fibroblasts (setting [2]) worked out at 1380 µM; with NIH3T3 fibroblasts (setting [3]), 632 µM.

Consider `O=c1ccc(C(F)(F)F)cn1-c1ccc(NCCN2CCCCC2)cc1Cl` [Compound 10, 1-(2-chloro-4-((2-(piperidyl-1-yl)ethyl)amino)phenyl)-5-(trifluoromethyl)pyridin-2(1H)-one], for which the Multiple in the assay with NIH3T3 fibroblasts (48 hours) is 20.73; in the assay with NIH3T3 fibroblasts (72 hours), 56.50. Also, the IC50 is 214 µM in the assay on NIH3T3 fibroblasts (setting [2]) and 62 µM with NIH3T3 fibroblasts (setting [3]).

With `O=c1ccc(C(F)(F)F)cn1-c1ccc(NCCN2CCN(CCO)CC2)cc1Cl` [Compound 13, 1-(2-chloro-4-((2-(4-(2-hydroxyethyl)piperazin-1-yl)ethyl)amino)-phenyl)-5-(trifluoromethyl)pyridin-2(1H)-one], the “Treatment effect on renal fibrosis (conclusion)” value in assay [1] (15 mg/kg) was “can effectively treat renal fibrosis”. The “Score (X ± S), renal interstitium collagens of left kidneys, MASSON staining” value in assay [1] (15 mg/kg intragastric once per day for 12 days, SD rats n=3, model group 2.45 ± 0.38, normal group 0.25 ± 0.00, p < 0.01 vs model) is recorded as 1.52 ± 0.16^⋆⋆**. Also, the “Score (X ± S), index of renal tubulointerstitial lesions of obstruction kidneys, HE staining” value in assay [1] (15 mg/kg intragastric once per day for 12 days, SD rats n=3, model group 9.00 ± 1.00, normal group 0.33 ± 0.12, p < 0.01 vs model) is reported as 7.00 ± 0.35^⋆⋆**. Further, the Multiple in the assay with NIH3T3 fibroblasts (48 hours) turned out to be 44.14; with NIH3T3 fibroblasts (72 hours), 57.20. Besides, the values for the IC50 in the assay with NIH3T3 fibroblasts (setting [2]) and in the assay with NIH3T3 fibroblasts (setting [3]) were 100 µM and 62 µM, respectively.

`O=c1ccc(C(F)(F)F)cn1-c1ccc(NCCN2CCOCC2)cc1Cl` [Compound 11, 1-(2-chloro-4-((2-morpholinylethyl)amino)-phenyl)-5-(trifluoromethyl)pyridin-2(1H)-one]: the Multiple with NIH3T3 fibroblasts (48 hours) is recorded as 25.50; in the assay on NIH3T3 fibroblasts (72 hours), 62.50. In addition, the IC50 is 174 µM in the assay with NIH3T3 fibroblasts (setting [2]) and 56 µM in the assay with NIH3T3 fibroblasts (setting [3]).

Turning to `CN1CCN(CCNc2ccc(-n3cc(C(F)(F)F)ccc3=O)c(Cl)c2)CC1` [Compound 12, 1-(2-chloro-4-((2-(4-methylpiperazin-1-yl)ethyl)amino)phenyl)-5-(trifluoromethyl)pyridin-2(1H)-one], the Multiple in the assay with NIH3T3 fibroblasts (48 hours) came to 13.42; in the assay on NIH3T3 fibroblasts (72 hours) it was 33.33. Also, the IC50 with NIH3T3 fibroblasts (setting [2]) turned out to be 330 µM; in the assay with NIH3T3 fibroblasts (setting [3]), 106 µM.

Regarding `Cl.O=c1ccc(C(F)(F)F)cn1-c1ccc(NCCCN2CCCCC2)cc1Cl` [Compound 7, 1-(2-chloro-4-(((3-piperidin-1-yl)propyl)amino)phenyl)-5-(trifluoromethyl)pyridin-2(1H)-one hydrochloride], the Multiple is 17.09 in the assay with NIH3T3 fibroblasts (48 hours) and 71.17 in the assay on NIH3T3 fibroblasts (72 hours). The IC50 in the assay with NIH3T3 fibroblasts (setting [2]) turned out to be 259 µM; with NIH3T3 fibroblasts (setting [3]), 49 µM.

Regarding `O=c1ccc(C(F)(F)F)cn1-c1ccc(NCCOCCO)cc1Cl` [Compound 8, 1-(2-chloro-4-((2-(2-hydroxyethoxy)ethyl)amino)phenyl)-5-(trifluoromethyl)pyridin-2(1H)-one], the Multiple in the assay with NIH3T3 fibroblasts (48 hours) is reported as 9.09; in the assay on NIH3T3 fibroblasts (72 hours), 10.59. For the same compound, the concentration for half-maximal inhibition (IC50) with NIH3T3 fibroblasts (setting [2]) was determined as 487 µM; in the assay with NIH3T3 fibroblasts (setting [3]) it was 332 µM.

For orientation: IC50 means the point on the concentration scale where inhibition reaches its midpoint. Low readings indicate higher potency, high ones lower potency.

Values taken from patent publication US8426407B2, “Preparation of 1-(substituted aryl)-5-trifluoromethyl-2-(1H)pyridone compounds and salts thereof and their applications” (Central South University, priority 2009, dated 2013).
